Measurements reported in PubChem BioAssay AID2060488 (Molecular Pharmacology Branch, DTP, NCI, 2025).

System: 966289-007-R4-J1-PDC complex spheroid viability
Test: Anticancer human tumor 966289-007-R4-J1-PDC patient-derived pancreatic adenocarcinoma cell line growth inhibition [GQUAD]
Conditions: for IC50: curve of first compound; for viability, T/C: stronger effect = lower value; active means viability on the fitted dose curve at most 10% of control; inactive means the rest
In short: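 Viability of tumor cells grown as complex spheroids with endothelial and stromal cells, exposed to drug combinations. Top concentration at or near clinical Cmax (else 10 microM), diluted in half-log increments.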

[1] = second compound 0.0316 µM, first compound 0.0316 µM
[2] = second compound 0.0316 µM, first compound 0.1 µM
[3] = second compound 0.0316 µM, first compound 0.316 µM
[4] = second compound 0.0316 µM, first compound 1 µM
[5] = second compound 0.0316 µM, first compound 3.16 µM
[6] = second compound 0.0316 µM, first compound 10 µM
[7] = second compound 0.1 µM, first compound 0.0316 µM
[8] = second compound 0.1 µM, first compound 0.1 µM
[9] = second compound 0.1 µM, first compound 0.316 µM
[10] = second compound 0.1 µM, first compound 1 µM
[11] = second compound 0.1 µM, first compound 3.16 µM
[12] = second compound 0.1 µM, first compound 10 µM
[13] = second compound 0.316 µM, first compound 0.0316 µM
[14] = second compound 0.316 µM, first compound 0.1 µM
[15] = second compound 0.316 µM, first compound 0.316 µM
[16] = second compound 0.316 µM, first compound 1 µM
[17] = second compound 0.316 µM, first compound 3.16 µM
[18] = second compound 0.316 µM, first compound 10 µM
[19] = second compound 1 µM, first compound 0.0316 µM
[20] = second compound 1 µM, first compound 0.1 µM
[21] = second compound 1 µM, first compound 0.316 µM
[22] = second compound 1 µM, first compound 1 µM
[23] = second compound 1 µM, first compound 3.16 µM
[24] = second compound 1 µM, first compound 10 µM
[25] = second compound 3.16 µM, first compound 0.0316 µM
[26] = second compound 3.16 µM, first compound 0.1 µM
[27] = second compound 3.16 µM, first compound 0.316 µM
[28] = second compound 3.16 µM, first compound 1 µM
[29] = second compound 3.16 µM, first compound 3.16 µM
[30] = second compound 3.16 µM, first compound 10 µM
[31] = second compound 10 µM, first compound 0.0316 µM
[32] = second compound 10 µM, first compound 0.1 µM
[33] = second compound 10 µM, first compound 0.316 µM
[34] = second compound 10 µM, first compound 1 µM
[35] = second compound 10 µM, first compound 3.16 µM
[36] = second compound 10 µM, first compound 10 µM
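Further: spheroids exposed to the agents for seven days before readout.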
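Wherever viability, T/C is given: percent viability relative to DMSO vehicle control wells taken as 100%.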

C=CCn1c(=O)c2cnc(Nc3ccc(N4CCN(C)CC4)cc3)nc2n1-c1cccc(C(C)(C)O)n1 + Cc1cnc(CNC(=O)c2c(=O)c3ccc(N4CCCN(C)CC4)nc3n3c2sc2ccccc23)cn1
inactive: viability, T/C [1] 105% | viability, T/C [2] 90% | viability, T/C [3] 36.5% | viability, T/C [7] 29.4% | viability, T/C [8] 15.7%
0.236 µM: IC50 (second compound 0.0316 µM)
active: viability, T/C [4] 4.74% | viability, T/C [5] 1.95% | viability, T/C [6] 1.13% | viability, T/C [9] 8.35% | viability, T/C [10] 3.91% | viability, T/C [11] 2.06% | viability, T/C [12] 1.35% | viability, T/C [13] 6.91% | viability, T/C [14] 6.09% | viability, T/C [15] 5.08% | viability, T/C [16] 4.04% | viability, T/C [17] 2.11% | viability, T/C [18] 1.81% | viability, T/C [19] 4.63% | viability, T/C [20] 4.25% | viability, T/C [21] 3.87% | viability, T/C [22] 2.82% | viability, T/C [23] 1.24% | viability, T/C [24] 1.48% | viability, T/C [25] 2.9% | viability, T/C [26] 2.75% | viability, T/C [27] 2.77% | viability, T/C [28] 1.24% | viability, T/C [29] 0.09% | viability, T/C [30] 0.38% | viability, T/C [31] 0.06% | viability, T/C [32] 0.11% | viability, T/C [33] 0.12% | viability, T/C [34] 0.28% | viability, T/C [35] 0.46% | viability, T/C [36] 0.13%
< 0.0316 µM: IC50 (second compound 0.1 µM) | IC50 (second compound 0.316 µM) | IC50 (second compound 1 µM) | IC50 (second compound 3.16 µM) | IC50 (second compound 10 µM)

COc1ncnc(C2CC2)c1-c1ncc2cnn(Cc3ccc(-c4nc(C(F)(F)F)cn4C(C)C)cc3)c2n1 + Cc1cnc(CNC(=O)c2c(=O)c3ccc(N4CCCN(C)CC4)nc3n3c2sc2ccccc23)cn1
< 0.0316 µM: IC50 (second compound 0.1 µM) | IC50 (second compound 0.316 µM) | IC50 (second compound 1 µM) | IC50 (second compound 3.16 µM) | IC50 (second compound 10 µM)
> 10 µM: IC50 (second compound 0.0316 µM)
inactive: viability, T/C [1] 105% | viability, T/C [2] 94.2% | viability, T/C [3] 103% | viability, T/C [4] 92.9% | viability, T/C [5] 101% | viability, T/C [6] 97.3% | viability, T/C [7] 24.4% | viability, T/C [8] 24.1% | viability, T/C [9] 25.3% | viability, T/C [10] 23.8% | viability, T/C [11] 26.4% | viability, T/C [12] 29.3% | viability, T/C [13] 9.38% | viability, T/C [14] 10.1% | viability, T/C [15] 9.14% | viability, T/C [16] 10.4% | viability, T/C [17] 10.8% | viability, T/C [18] 10.4%
active: viability, T/C [19] 6.44% | viability, T/C [20] 5.74% | viability, T/C [21] 6.97% | viability, T/C [22] 5.21% | viability, T/C [23] 5.65% | viability, T/C [24] 7.13% | viability, T/C [25] 4.34% | viability, T/C [26] 4.38% | viability, T/C [27] 4.76% | viability, T/C [28] 4.44% | viability, T/C [29] 5.14% | viability, T/C [30] 5.37% | viability, T/C [31] 0.08% | viability, T/C [32] 0.13% | viability, T/C [33] 0.17% | viability, T/C [34] 0.16% | viability, T/C [35] 0.4% | viability, T/C [36] 0.41%
